Each structure is given as a SMILES string. pIC50: −log10 of the molar value.

This assay deals with mTOR/GbL/Raptor (mTORC1) (Homo sapiens, UniProt P42345). Nature of the assay: mTOR/GbL/Raptor (mTORC1) ELISA assay, phosphorylation of 4E-BP1. Type of assay: biochemical. The note with it: 0.2 nM mTORC1, 40 uM ATP, 50 nM NHis-tagged 4E-BP1, 120 minutes; read-out: IC50 in this assay (mTORC1 ELISA). The procedure: The measurement of mTORC1 enzyme activity was performed in an ELISA assay format following the phosphorylation of 4E-BP1 protein. All experiments were performed in the 384-well format. Generally, 0.5 μL DMSO containing varying concentrations of the test Compound was mixed with 15 μL enzyme solution. Kinase reactions were initiated with the addition of 15 μL of substrates-containing solution. The assay conditions were-as follows; 0.2 nM mTORC1, 40 uM ATPand 50 nM NHis-tagged4E-BP1 in20 mM Hepes, pH 7.2, 1 mM DTT, 50 mMNaC1, 10 mM MnC12, 0.02 mg/mL BSA, 0.01% CHAPS, 50 mM β-glycerophosphate. Following an incubation of 120 minutes at anibient temperature, 20 μL of the reaction volume was transferred to a Ni-Chelate-coated 384-well plate. The binding step of the 4E-BP1 protein proceeded for 60 minutes, followed by washing 4 times each with 50 uL of Tris-buffered saline solution (TBS). Anti-phospho-4E-BPl rabbit-IgG ([…]. 1:5000) in 5% BSA-TBST (0.2% Tween-20 in TBS) was added and further incubated for 60 minutes. Incubation with a secondary HRP-tagged anti-IgG was similarly performed after washing off the primary antibody (4 washes of 50 μL). Following the final wash step with TBST, 20 μL of SuperSignal ELISA Femto (Pierce Biotechnology) was added and the luminescence measured using an En Vision plate reader.
`CCc1nc(CN(C)C)nc(N2CCOc3c(C)cc(-c4cnc5sc(N)nc5c4)cc3C2)c1C(C)C` [Compound 88, 6-(4-{2-[(dimethylamino)methyl]-6-ethyl-5-(1-methylethyl)pyrimidin-4-yl}-9-methyl-2,3,4,5-tetrahydro-1,4-benzoxazepin-7-yl)[1,3]thiazolo[5,4-b]pyridin-2-amine]: the pIC50 is ≥ 7.00. In the case of `Cc1cc(-c2cnc3sc(N)nc3c2)cc2c1OCCN(c1nc([S+](C)[O-])nc(C)c1C(C)C)C2` (stereo not shown) [Compound 99, 6-{9-methyl-4-[6-methyl-5-(1-methylethyl)-2-(methylsulfinyl)pyrimidin-4-yl]-2,3,4,5-tetrahydro-1,4-benzoxazepin-7-yl}[1,3]thiazolo[5,4-b]pyridin-2-amine], the pIC50 is ≥ 7.00. As for `Cc1cc(-c2nnc(N)s2)cc2c1OCCN(c1ncnc(C)c1C(C)C)C2` [Compound 173, 5-{9-methyl-4-[6-methyl-5-(1-methylethyl)pyrimidin-4-yl]-2,3,4,5-tetrahydro-1,4-benzoxazepin-7-yl}-1,3,4-thiadiazol-2-amine], the figure is ≥ 7.00.

Consider `Cc1cc(-c2cnc(Cl)c(NS(C)(=O)=O)c2)cc2c1OCCN(c1nc(N)ncc1C(F)(F)F)C2` [Compound 14, N-(5-{4-[2-amino-5-(trifluoromethyl)pyrimidin-4-yl]-9-methyl-2,3,4,5-tetrahydro-1,4-benzoxazepin-7-yl}-2-chloropyridin-3-yl)methanesulfonamide], for which the pIC50 was ≥ 7.00. In the case of `Cc1cc(-c2nnc(N)s2)cc2c1OCCN(c1ncnc(C)c1C)C2` [Compound 176, 5-[4-(5,6-dimethylpyrimidin-4-yl)-9-methyl-2,3,4,5-tetrahydro-1,4-benzoxazepin-7-yl]-1,3,4-thiadiazol-2-amine], the pIC50 is ≥ 7.00. In the case of `Cc1cc(-c2nnc(N)s2)cc2c1OCCN(c1ncncc1C(C)C)C2` [Compound 177, 5-{9-methyl-4-[5-(1-methylethyl)pyrimidin-4-yl]-2,3,4,5-tetrahydro-1,4-benzoxazepin-7-yl}-1,3,4-thiadiazol-2-amine], the pIC50 was ≥ 7.00.

On to `C=C(C)c1c(C)ncnc1N1CCOc2c(C)cc(-c3cnc4sc(N)nc4c3)cc2C1` [Compound 124, 6-{9-methyl-4-[6-methyl-5-(1-methylethenyl)pyrimidin-4-yl]-2,3,4,5-tetrahydro-1,4-benzoxazepin-7-yl}[1,3]thiazolo[5,4-b]pyridin-2-amine], for which the pIC50 is ≥ 7.00. As to `COCCc1nc(C)c(C(C)C)c(N2CCOc3c(C)cc(-c4cnc5sc(N)nc5c4)cc3C2)n1` [Compound 155, 6-(9-methyl-4-{6-methyl-5-(1-methylethyl)-2-[2-(methyloxy)ethyl]pyrimidin-4-yl}-2,3,4,5-tetrahydro-1,4-benzoxazepin-7-yl)[1,3]thiazolo[5,4-b]pyridin-2-amine], the pIC50 is ≥ 7.00. For the compound `Cc1cc(-c2cnc3sc(N)nc3c2)cc2c1OCCN(c1nc(C(F)(F)F)nc(C)c1C(C)C)C2` [Compound 128, 6-{9-methyl-4-[6-methyl-5-(1-methylethyl)-2-(trifluoromethyl)pyrimidin-4-yl]-2,3,4,5-tetrahydro-1,4-benzoxazepin-7-yl}[1,3]thiazolo[5,4-b]pyridin-2-amine], the pIC50 is ≥ 7.00. Turning to `Cc1cc(-c2cnc3sc(N)nc3c2)cc2c1OCCN(c1nc(N)nc(C)c1-c1cccc(F)c1)C2` [Compound 49, 6-{4-[2-amino-5-(3-fluorophenyl)-6-methylpyrimidin-4-yl]-9-methyl-2,3,4,5-tetrahydro-1,4-benzoxazepin-7-yl}[1,3]thiazolo[5,4-b]pyridin-2-amine], the pIC50 is ≥ 7.00. Turning to `Cc1nc2ncc(-c3cc(C)c4c(c3)CN(c3nc(CNCC(F)F)nc(C)c3C(C)C)CCO4)cc2[nH]1` [Compound 166, 2,2-difluoro-N-({4-methyl-5-(1-methylethyl)-6-[9-methyl-7-(2-methyl-1H-imidazo[4,5-b]pyridin-6-yl)-2,3-dihydro-1,4-benzoxazepin-4(5H)-yl]pyrimidin-2-yl}methyl)ethanamine], the pIC50 was ≥ 7.00. Regarding `Cc1cc(-c2cnc3sc(N)nc3c2)cc2c1OCCN(c1nc(CNCC(F)(F)F)nc(C)c1C(C)C)C2` [Compound 103, 6-{9-methyl-4-[6-methyl-5-(1-methylethyl)-2-{[(2,2,2-trifluoroethyl)amino]methyl}pyrimidin-4-yl]-2,3,4,5-tetrahydro-1,4-benzoxazepin-7-yl}[1,3]thiazolo[5,4-b]pyridin-2-amine], the pIC50 was 6.30 to 7.00. For `Cc1ncc(-c2cc(C)c3c(c2)CN(c2nc(N)nc(C)c2C(C)C)CCO3)s1` [Compound 118, 4-methyl-5-(1-methylethyl)-6-[9-methyl-7-(2-methyl-1,3-thiazol-5-yl)-2,3-dihydro-1,4-benzoxazepin-4(5H)-yl]pyrimidin-2-amine], the pIC50 was 6.30 to 7.00. Consider `COc1cncc(-c2cc(C)c3c(c2)CN(c2nc(N)nc(C)c2C(C)C)CCO3)c1` [Compound 79, 4-methyl-5-(1-methylethyl)-6-{9-methyl-7-[5-(methyloxy)pyridin-3-yl]-2,3-dihydro-1,4-benzoxazepin-4(5H)-yl}pyrimidin-2-amine], for which the pIC50 was 6.30 to 7.00. Turning to `Cc1nc(C)c(C(C)C)c(N2CCOc3c(C)cc(-c4nnc(N)s4)cc3C2)n1` [Compound 172, 5-{4-[2,6-dimethyl-5-(1-methylethyl)pyrimidin-4-yl]-9-methyl-2,3,4,5-tetrahydro-1,4-benzoxazepin-7-yl}-1,3,4-thiadiazol-2-amine], the pIC50 was ≥ 7.00. For the compound `Cc1cc(-c2ccc(-c3ncc[nH]3)cc2)cc2c1OCCN(c1nc(N)nc(C)c1C(C)C)C2` [Compound 42, 4-{7-[4-(1H-imidazol-2-yl)phenyl]-9-methyl-2,3-dihydro-1,4-benzoxazepin-4(5H)-yl}-6-methyl-5-(1-methylethyl)pyrimidin-2-amine], the pIC50 is ≥ 7.00. Take `Cc1cc(-c2cnc3sc(N)nc3c2)cc2c1OCCN(c1nc(CC#N)nc(C)c1C(C)C)C2` [Compound 105, {4-[7-(2-amino[1,3]thiazolo[5,4-b]pyridin-6-yl)-9-methyl-2,3-dihydro-1,4-benzoxazepin-4(5H)-yl]-6-methyl-5-(1-methylethyl)pyrimidin-2-yl}acetonitrile]: the pIC50 is ≥ 7.00.

In the case of `COc1ccc(-c2cc(C)c3c(c2)CN(c2nc(N)nc(C)c2C(C)C)CCO3)cn1` [Compound 74, 4-methyl-5-(1-methylethyl)-6-{9-methyl-7-[6-(methyloxy)pyridin-3-yl]-2,3-dihydro-1,4-benzoxazepin-4(5H)-yl}pyrimidin-2-amine], the pIC50 was 6.30 to 7.00.

On to `COCCc1c(C)nc(N)nc1N1CCOc2c(C)cc(-c3cnc4sc(N)nc4c3)cc2C1` [Compound 16, 6-(4-{2-amino-6-methyl-5-[2-(methyloxy)ethyl]pyrimidin-4-yl}-9-methyl-2,3,4,5-tetrahydro-1,4-benzoxazepin-7-yl)[1,3]thiazolo[5,4-b]pyridin-2-amine], for which the pIC50 was ≥ 7.00. As for `Cc1cc(-c2cnc(Cl)c(NS(C)(=O)=O)c2)cc2c1OCCN(c1nc(CNCCF)nc(C)c1C(C)C)C2` [Compound 161, N-(2-chloro-5-{4-[2-{[(2-fluoroethyl)amino]methyl}-6-methyl-5-(1-methylethyl)pyrimidin-4-yl]-9-methyl-2,3,4,5-tetrahydro-1,4-benzoxazepin-7-yl}pyridin-3-yl)methanesulfonamide], the figure is ≥ 7.00; as for `CNC(=O)c1sc(N2CCOc3c(C)cc(-c4cnc(Cl)c(NS(C)(=O)=O)c4)cc3C2)nc1C(C)C` [Compound 22, 2-[7-{6-chloro-5-[(methylsulfonyl)amino]pyridin-3-yl}-9-methyl-2,3-dihydro-1,4-benzoxazepin-4(5H)-yl]-N-methyl-4-(1-methylethyl)-1,3-thiazole-5-carboxamide], ≥ 7.00; as for `Cc1cc(-c2cnc3sc(N)nc3c2)cc2c1OCCN(c1ncc(C(F)(F)F)c(N)n1)C2` [Compound 13, 6-{4-[4-amino-5-(trifluoromethyl)pyrimidin-2-yl]-9-methyl-2,3,4,5-tetrahydro-1,4-benzoxazepin-7-yl}[1,3]thiazolo[5,4-b]pyridin-2-amine], 6.30 to 7.00.

Take `CNc1ncnc(N2CCOc3c(C)cc(-c4cnc5sc(N)nc5c4)cc3C2)c1[N+](=O)[O-]` [Compound 148, 6-{9-methyl-4-[6-(methylamino)-5-nitropyrimidin-4-yl]-2,3,4,5-tetrahydro-1,4-benzoxazepin-7-yl}[1,3]thiazolo[5,4-b]pyridin-2-amine]: the pIC50 was 6.30 to 7.00. For `Cc1cc(-c2cnc3sc(N)nc3c2)cc2c1OCCN(c1nccc(N)n1)C2` [Compound 25, 6-[4-(4-aminopyrimidin-2-yl)-9-methyl-2,3,4,5-tetrahydro-1,4-benzoxazepin-7-yl][1,3]thiazolo[5,4-b]pyridin-2-amine], the pIC50 is 6.30 to 7.00.

Consider `Cc1cc(-c2cnc3sc(N)nc3c2)cc2c1OCCN(c1nc(NCCN(C)C)nc(C)c1C(C)C)C2` [Compound 50, N′-{4-[7-(2-amino[1,3]thiazolo[5,4-b]pyridin-6-yl)-9-methyl-2,3-dihydro-1,4-benzoxazepin-4(5H)-yl]-6-methyl-5-(1-methylethyl)pyrimidin-2-yl}-N,N-dimethylethane-1,2-diamine], for which the pIC50 was ≥ 7.00.

(Values after US20140107100A1, “Benzoxazepines as Inhibitors of PI3K/mTOR and Methods of Their Use and Manufacture” (EXELIXIS, INC., priority 2010, published 2014).)
